Results reported in PubChem BioAssay (NCI).
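Test compounds were applied to cells in 96-well plates for 48 hours at 5 doses. GI50: concentration for 50% inhibition of growth. Definition used: TGI = concentration required for complete inhibition of growth.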

How the values were obtained:
Test in all cases: inhibition of tumour cell growth, NCI panel, 48 h
786-0 renal = system: 786-0 renal
A498 renal = system: A498 renal
A549 NSCLC = system: A549 NSCLC
ACHN renal = system: ACHN renal
BT-549 breast = system: BT-549 breast
CAKI-1 renal = system: CAKI-1 renal
CCRF-CEM leukemia = system: CCRF-CEM leukemia
COLO 205 colon = system: COLO 205 colon
DU-145 prostate = system: DU-145 prostate
EKVX NSCLC = system: EKVX NSCLC
HCC-2998 colon = system: HCC-2998 colon
HCT-116 colon = system: HCT-116 colon
HCT-15 colon = system: HCT-15 colon
HL-60(TB) leukemia = system: HL-60(TB) leukemia
HOP-62 NSCLC = system: HOP-62 NSCLC
HOP-92 NSCLC = system: HOP-92 NSCLC
HS 578T breast = system: HS 578T breast
HT29 colon = system: HT29 colon
IGROV1 ovarian = system: IGROV1 ovarian
K-562 leukemia = system: K-562 leukemia
KM12 colon = system: KM12 colon
LOX IMVI melanoma = system: LOX IMVI melanoma
M14 melanoma = system: M14 melanoma
MALME-3M melanoma = system: MALME-3M melanoma
MCF7 breast = system: MCF7 breast
MDA-MB-231 breast = system: MDA-MB-231 breast
MDA-MB-435 = system: MDA-MB-435
MOLT-4 leukemia = system: MOLT-4 leukemia
NCI-H226 lung = system: NCI-H226 lung
NCI-H23 lung = system: NCI-H23 lung
NCI-H460 lung = system: NCI-H460 lung
NCI-H522 lung = system: NCI-H522 lung
NCI/ADR-RES ovarian = system: NCI/ADR-RES ovarian
OVCAR-3 ovarian = system: OVCAR-3 ovarian
OVCAR-4 ovarian = system: OVCAR-4 ovarian
OVCAR-5 ovarian = system: OVCAR-5 ovarian
OVCAR-8 ovarian = system: OVCAR-8 ovarian
PC-3 prostate = system: PC-3 prostate
RPMI-8226 leukemia = system: RPMI-8226 leukemia
RXF 393 renal = system: RXF 393 renal
SF-268 CNS = system: SF-268 CNS
SF-295 CNS = system: SF-295 CNS
SF-539 CNS = system: SF-539 CNS
SK-MEL-2 melanoma = system: SK-MEL-2 melanoma
SK-MEL-28 melanoma = system: SK-MEL-28 melanoma
SK-MEL-5 melanoma = system: SK-MEL-5 melanoma
SK-OV-3 ovarian = system: SK-OV-3 ovarian
SN12C renal = system: SN12C renal
SNB-19 CNS = system: SNB-19 CNS
SNB-75 CNS = system: SNB-75 CNS
SR leukemia = system: SR leukemia
SW-620 colon = system: SW-620 colon
T-47D breast = system: T-47D breast
TK-10 renal = system: TK-10 renal
U251 CNS = system: U251 CNS
UACC-257 melanoma = system: UACC-257 melanoma
UACC-62 melanoma = system: UACC-62 melanoma
UO-31 renal = system: UO-31 renal

Molecule `O=C(NNc1nc2c(F)cccc2n2cccc12)c1cnccn1` has a GI50 (786-0 renal) of 426 nM, a TGI (786-0 renal) of 19300 nM and a GI50 (A498 renal) of 2180 nM. It also gave a TGI (A498 renal) of 10300 nM, a GI50 (A549 NSCLC) of 466 nM and a TGI (A549 NSCLC) of 36000 nM. The GI50 (ACHN renal) was 250 nM, the TGI (ACHN renal) was 36000 nM and the GI50 (BT-549 breast) was 671 nM. It also gave a TGI (BT-549 breast) of 50800 nM, a GI50 (CAKI-1 renal) of 628 nM and a TGI (CAKI-1 renal) of 16400 nM. It also gave a GI50 (CCRF-CEM leukemia) of 126 nM, a GI50 (COLO 205 colon) of 426 nM and a TGI (COLO 205 colon) greater than 33400 nM. The GI50 (DU-145 prostate) was 657 nM, the TGI (DU-145 prostate) was 24900 nM and the GI50 (EKVX NSCLC) was 421 nM. The TGI (EKVX NSCLC) was 30000 nM, the GI50 (HCC-2998 colon) was 867 nM and the TGI (HCC-2998 colon) was 28600 nM. It also gave a GI50 (HCT-116 colon) of 214 nM, a TGI (HCT-116 colon) of 23700 nM and a GI50 (HCT-15 colon) of 178 nM. The TGI (HCT-15 colon) was greater than 48200 nM, the GI50 (HL-60(TB) leukemia) was 409 nM and the TGI (HL-60(TB) leukemia) was 4740 nM. The GI50 (HOP-62 NSCLC) was 365 nM, the TGI (HOP-62 NSCLC) was 20000 nM and the GI50 (HOP-92 NSCLC) was 556 nM. It also gave a TGI (HOP-92 NSCLC) of 45100 nM, a GI50 (HS 578T breast) of 7050 nM and a TGI (HS 578T breast) of 80400 nM. The GI50 (HT29 colon) was 604 nM, the TGI (HT29 colon) was 50300 nM and the GI50 (IGROV1 ovarian) was 328 nM. The TGI (IGROV1 ovarian) was 29100 nM, the GI50 (K-562 leukemia) was 478 nM and the TGI (K-562 leukemia) was greater than 100000 nM. For the same molecule, the GI50 (KM12 colon) was 458 nM, the TGI (KM12 colon) was 27100 nM and the GI50 (LOX IMVI melanoma) was 300 nM. The TGI (LOX IMVI melanoma) was 5830 nM, the GI50 (M14 melanoma) was 269 nM and the TGI (M14 melanoma) was 11700 nM. It also gave a GI50 (MALME-3M melanoma) of 1630 nM, a TGI (MALME-3M melanoma) greater than 77100 nM and a GI50 (MCF7 breast) of 412 nM. The TGI (MCF7 breast) was 29600 nM, the GI50 (MDA-MB-231 breast) was 834 nM and the TGI (MDA-MB-231 breast) was 24800 nM. For the same molecule, the GI50 (MDA-MB-435) was 821 nM, the TGI (MDA-MB-435) was 26300 nM and the GI50 (MOLT-4 leukemia) was 302 nM. The TGI (MOLT-4 leukemia) was greater than 100000 nM, the GI50 (NCI-H226 lung) was 522 nM and the TGI (NCI-H226 lung) was 7000 nM. The GI50 (NCI-H23 lung) was 905 nM, the TGI (NCI-H23 lung) was greater than 69800 nM and the GI50 (NCI-H460 lung) was 331 nM. The TGI (NCI-H460 lung) was 11000 nM, the GI50 (NCI-H522 lung) was 817 nM and the TGI (NCI-H522 lung) was 16800 nM. It also gave a GI50 (NCI/ADR-RES ovarian) of 327 nM, a TGI (NCI/ADR-RES ovarian) of 23300 nM and a GI50 (OVCAR-3 ovarian) of 454 nM. It also gave a TGI (OVCAR-3 ovarian) of 13600 nM, a GI50 (OVCAR-4 ovarian) of 469 nM and a TGI (OVCAR-4 ovarian) of 11000 nM. For the same molecule, the GI50 (OVCAR-5 ovarian) was 1510 nM, the TGI (OVCAR-5 ovarian) was greater than 61100 nM and the GI50 (OVCAR-8 ovarian) was 414 nM. The TGI (OVCAR-8 ovarian) was greater than 81600 nM, the GI50 (PC-3 prostate) was 393 nM and the TGI (PC-3 prostate) was 39500 nM. The GI50 (RPMI-8226 leukemia) was 418 nM, the TGI (RPMI-8226 leukemia) was 9880 nM and the GI50 (RXF 393 renal) was 986 nM. The TGI (RXF 393 renal) was 7290 nM, the GI50 (SF-268 CNS) was 484 nM and the TGI (SF-268 CNS) was greater than 67700 nM. The GI50 (SF-295 CNS) was 401 nM, the TGI (SF-295 CNS) was 16000 nM and the GI50 (SF-539 CNS) was 487 nM. For the same molecule, the TGI (SF-539 CNS) was 14500 nM, the GI50 (SK-MEL-2 melanoma) was 1400 nM and the TGI (SK-MEL-2 melanoma) was 37000 nM. For the same molecule, the GI50 (SK-MEL-28 melanoma) was 650 nM, the TGI (SK-MEL-28 melanoma) was 15700 nM and the GI50 (SK-MEL-5 melanoma) was 864 nM. It also gave a TGI (SK-MEL-5 melanoma) of 4560 nM, a GI50 (SK-OV-3 ovarian) of 527 nM and a TGI (SK-OV-3 ovarian) of 27800 nM. For the same molecule, the GI50 (SN12C renal) was 602 nM, the TGI (SN12C renal) was 31700 nM and the GI50 (SNB-19 CNS) was 545 nM. The TGI (SNB-19 CNS) was greater than 100000 nM, the GI50 (SNB-75 CNS) was 1980 nM and the TGI (SNB-75 CNS) was 41600 nM. The GI50 (SR leukemia) was 392 nM, the TGI (SR leukemia) was greater than 37700 nM and the GI50 (SW-620 colon) was 435 nM. The TGI (SW-620 colon) was 38500 nM, the GI50 (T-47D breast) was 509 nM and the TGI (T-47D breast) was greater than 34300 nM. For the same molecule, the GI50 (TK-10 renal) was 5050 nM, the TGI (TK-10 renal) was 60900 nM and the GI50 (U251 CNS) was 306 nM. It also gave a TGI (U251 CNS) of 29200 nM, a GI50 (UACC-257 melanoma) of 1150 nM and a TGI (UACC-257 melanoma) of 8310 nM. For the same molecule, the GI50 (UACC-62 melanoma) was 477 nM, the TGI (UACC-62 melanoma) was 6280 nM and the GI50 (UO-31 renal) was 216 nM. For the same molecule, the TGI (UO-31 renal) was 13600 nM.
